In patent US7557111B2, “Substituted thieno[3,2-d]pyrimidines as CRF receptor antagonists” (Taisho Pharmaceutical Co., Ltd., priority 2004, dated 2009):
Where a name gives a salt, the structure may show the parent alone.

Question: With `Cc1nc(N2CCC(CO)CC2)c2sc(C)c(-c3c(C)cc(Br)cc3C)c2n1` (as salt: HCl) [compound 1-004, {1-[7-(4-bromo-2,6-dimethyl-phenyl)-2,6-dimethyl-thieno[3,2-d]pyrimidin-4-yl]-piperidin-4-yl}-methanol hydrochloride] as the molecule, how does the melting point read?
Answer: Its melting point is 242 to 244 °C.
